Data on 27 molecules can be found in patent US20250282768A1 (Janssen Pharmaceutica NV, priority 2022, published 2025).

This assay deals with p-IKKa levels in L363 (NIK translocated multiple myeloma) cells. Briefly: Assay 2: Effect of compounds on p-IKKa levels in L363 (NIK translocated multiple myeloma) cells. In kind it is cell-based. The note with it: Homo sapiens, L-363, 6 h, read-out: Assay 2 IC50 (nM), p-IKKa (Ser 176/180) in BAFF stimulated L363 cells with MG132, 6 h; average if tested more than once. The method, boiled down: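 L363 cells incubated overnight ± 250 ng/ml BAFF, then 6 h at 37 °C with compound (0.3% DMSO) ± 10 μM MG132. Lysates assayed for p-IKKa (Ser176/180) by AlphaLISA SureFire. IC50 from sigmoidal fit of % inhibition normalized to BAFF/MG132-stimulated and unstimulated controls.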
`C[C@H](Nc1nccc(-c2cccc(-c3cc([C@]4(O)CCN(C)C4=O)on3)n2)n1)c1cn2ccccc2n1` [Example 394, (R)-3-Hydroxy-3-(3-(6-(2-(((S)-1-(imidazo[1,2-a]pyridin-2-yl)ethyl)amino)pyrimidin-4-yl)pyridin-2-yl)isoxazol-5-yl)-1-methylpyrrolidin-2-one]: the IC50 was more than 500 nM.

For `CC(Nc1nccc(-c2cccc(-c3cc([C@]4(O)CCN(C)C4=O)on3)n2)n1)c1nnc2ncccn12` (stereo partly drawn) [Example 395, (3R)-3-(3-(6-(2-((1-([1,2,4]Triazolo[4,3-a]pyrimidin-3-yl)ethyl)amino)pyrimidin-4-yl)pyridin-2-yl)isoxazol-5-yl)-3-hydroxy-1-methylpyrrolidin-2-one], the IC50 lay within 50 to 500 nM.

Regarding `CN(C)C[C@H](Nc1nccc(-c2cccc(-c3cc([C@]4(O)CCN(C)C4=O)on3)n2)n1)c1ccccc1` [Example 396, (R)-3-(3-(6-(2-(((R)-2-(Dimethylamino)-1-phenylethyl)amino)pyrimidin-4-yl)pyridin-2-yl)isoxazol-5-yl)-3-hydroxy-1-methylpyrrolidin-2-one], the IC50 is more than 500 nM.

For the molecule `CN(C)C[C@@H](Nc1nccc(-c2cccc(-c3cc([C@]4(O)CCN(C)C4=O)on3)n2)n1)c1ccccc1` [Example 397, (R)-3-(3-(6-(2-(((S)-2-(Dimethylamino)-1-phenylethyl)amino)pyrimidin-4-yl)pyridin-2-yl)isoxazol-5-yl)-3-hydroxy-1-methylpyrrolidin-2-one], the IC50 is more than 500 nM.

In the case of `CN1CC[C@@](O)(c2cc(-c3cccc(-c4ccnc(Nc5nccn5C)n4)n3)no2)C1=O` [Example 398, (R)-3-Hydroxy-1-methyl-3-(3-(6-(2-((1-methyl-1H-imidazol-2-yl)amino)pyrimidin-4-yl)pyridin-2-yl)isoxazol-5-yl)pyrrolidin-2-one], the IC50 is more than 500 nM.

Take `CN1CC[C@@](O)(c2cc(-c3cccc(-c4ccnc(Nc5cn(CCF)cn5)n4)n3)no2)C1=O` [Example 399, (R)-3-(3-(6-(2-((1-(2-Fluoroethyl)-1H-imidazol-4-yl)amino)pyrimidin-4-yl)pyridin-2-yl)isoxazol-5-yl)-3-hydroxy-1-methylpyrrolidin-2-one]: the IC50 was less than 50 nM.

With `CCn1cc(Nc2nccc(-c3cccc(-n4cc([C@]5(O)CCN(C)C5=O)nn4)n3)n2)c(C)n1` [Example 402, (R)-3-(1-(6-(2-((1-Ethyl-3-methyl-1H-pyrazol-4-yl)amino)pyrimidin-4-yl)pyridin-2-yl)-1H-1,2,3-triazol-4-yl)-3-hydroxy-1-methylpyrrolidin-2-one], the IC50 is less than 50 nM.

As for `CN1CC[C@@](O)(c2cn(-c3cccc(-c4ccnc(Nc5cnn(CC(F)(F)F)c5)n4)n3)nn2)C1=O` [Example 403, (R)-3-Hydroxy-1-methyl-3-(1-(6-(2-((1-(2,2,2-trifluoroethyl)-1H-pyrazol-4-yl)amino)pyrimidin-4-yl)pyridin-2-yl)-1H-1,2,3-triazol-4-yl)pyrrolidin-2-one], the IC50 is less than 50 nM.

Regarding `CN1CC[C@@](O)(c2cc(-c3cccc(-c4ccnc(Nc5cnn6c5CCCC6)n4)n3)on2)C1=O` [Example 406, (R)-3-Hydroxy-1-methyl-3-(5-(6-(2-((4,5,6,7-tetrahydropyrazolo[1,5-a]pyridin-3-yl)amino)pyrimidin-4-yl)pyridin-2-yl)isoxazol-3-yl)pyrrolidin-2-one], the IC50 was less than 50 nM.

For the molecule `CN1CC[C@@](O)(c2cc(-c3cccc(-c4ccnc(Nc5cnn(C)c5Cl)n4)n3)on2)C1=O` [Example 407, (R)-3-(5-(6-(2-((5-Chloro-1-methyl-1H-pyrazol-4-yl)amino)pyrimidin-4-yl)pyridin-2-yl)isoxazol-3-yl)-3-hydroxy-1-methylpyrrolidin-2-one], the IC50 is less than 50 nM.

Regarding `Cc1cc(Nc2nccc(-c3cccc(-c4cc([C@@]5(O)C(=O)N(C)CC5(F)F)on4)n3)n2)ccn1` [Example 408, (R)-4,4-Difluoro-3-hydroxy-1-methyl-3-(3-(6-(2-((2-methylpyridin-4-yl)amino)pyrimidin-4-yl)pyridin-2-yl)isoxazol-5-yl)pyrrolidin-2-one], the IC50 was less than 50 nM.

For `CN1CC(F)(F)[C@@](O)(c2cc(-c3cccc(-c4ccnc(Nc5cnn(C)c5Cl)n4)n3)no2)C1=O` [Example 409], the IC50 was less than 50 nM.

Take `CCn1ccc(Nc2nccc(-c3cccc(-c4cc([C@]5(O)CCN(C)C5=O)on4)n3)n2)n1` [Example 410, (R)-3-(3-(6-(2-((1-Ethyl-1H-pyrazol-3-yl)amino)pyrimidin-4-yl)pyridin-2-yl)isoxazol-5-yl)-3-hydroxy-1-methylpyrrolidin-2-one]: the IC50 was less than 50 nM.

On to `CN1CC[C@@](O)(c2cc(-c3cccc(-c4ccnc(Nc5cc(OC(F)F)n(C)n5)n4)c3)no2)C1=O` [Example 412, (R)-3-(3-(3-(2-((5-(Difluoromethoxy)-1-methyl-1H-pyrazol-3-yl)amino)pyrimidin-4-yl)phenyl)isoxazol-5-yl)-3-hydroxy-1-methylpyrrolidin-2-one], for which the IC50 is 50 to 500 nM.

With `CN1CC[C@@](O)(c2cc(-c3cccc(-c4ccnc(Nc5cn(CC(F)F)nc5OC5CC5)n4)c3)no2)C1=O` [Example 413, (R)-3-(3-(3-(2-((3-Cyclopropoxy-1-(2,2-difluoroethyl)-1H-pyrazol-4-yl)amino)pyrimidin-4-yl)phenyl)isoxazol-5-yl)-3-hydroxy-1-methylpyrrolidin-2-one], the IC50 was in the range of 50 to 500 nM.

For the molecule `CN1CC[C@@](O)(c2cc(-c3cccc(-c4ccnc(Nc5cc(N)n(C)n5)n4)c3)no2)C1=O` [Example 414, (R)-3-(3-(3-(2-((5-Amino-1-methyl-1H-pyrazol-3-yl)amino)pyrimidin-4-yl)phenyl)isoxazol-5-yl)-3-hydroxy-1-methylpyrrolidin-2-one], the IC50 is more than 500 nM.

As for `CN1CC[C@@](O)(c2cc(-c3cccc(-c4ccnc(Nc5cn(C)nc5N)n4)c3)no2)C1=O` [Example 415, (R)-3-(3-(3-(2-((3-Amino-1-methyl-1H-pyrazol-4-yl)amino)pyrimidin-4-yl)phenyl)isoxazol-5-yl)-3-hydroxy-1-methylpyrrolidin-2-one], the IC50 is more than 500 nM.

With `CN1CC[C@@](O)(c2cc(-c3cccc(-c4ccnc(Nc5cc6n(n5)CCNC6)n4)c3)no2)C1=O` [Example 416, (R)-3-Hydroxy-1-methyl-3-(3-(3-(2-((4,5,6,7-tetrahydropyrazolo[1,5-a]pyrazin-2-yl)amino)pyrimidin-4-yl)phenyl)isoxazol-5-yl)pyrrolidin-2-one], the IC50 is more than 500 nM.

Turning to `CN1CC[C@@](O)(c2cc(-c3cccc(-c4ccnc(N5CCn6nc(N)cc6C5)n4)c3)no2)C1=O` [Example 417, (R)-3-(3-(3-(2-(2-Amino-6,7-dihydropyrazolo[1,5-a]pyrazin-5(4H)-yl)pyrimidin-4-yl)phenyl)isoxazol-5-yl)-3-hydroxy-1-methylpyrrolidin-2-one], the IC50 is more than 500 nM.

`CN1CC[C@@](O)(c2cc(-c3cccc(-c4ccnc(Nc5nn(C)c6c5CNC6)n4)c3)no2)C1=O` [Example 418, (R)-3-Hydroxy-1-methyl-3-(3-(3-(2-((1-methyl-1,4,5,6-tetrahydropyrrolo[3,4-c]pyrazol-3-yl)amino)pyrimidin-4-yl)phenyl)isoxazol-5-yl)pyrrolidin-2-one]: the IC50 was more than 500 nM.

As for `CN1CC[C@@](O)(c2cc(-c3cccc(-c4ccnc(Nc5cnn6c5CNCC6)n4)c3)no2)C1=O` [Example 419, (R)-3-Hydroxy-1-methyl-3-(3-(3-(2-((4,5,6,7-tetrahydropyrazolo[1,5-a]pyrazin-3-yl)amino)pyrimidin-4-yl)phenyl)isoxazol-5-yl)pyrrolidin-2-one], the IC50 is more than 500 nM.

For `CN1CC[C@@](O)(c2cc(-c3cccc(-c4ccnc(Nc5nn(C)c6ccncc56)n4)c3)no2)C1=O` [Example 420, (R)-3-Hydroxy-1-methyl-3-(3-(3-(2-((1-methyl-1H-pyrazolo[4,3-c]pyridin-3-yl)amino)pyrimidin-4-yl)phenyl)isoxazol-5-yl)pyrrolidin-2-one], the IC50 is more than 500 nM.

Consider `CN1CC[C@@](O)(c2cc(-c3cccc(-c4ccnc(Nc5nn(C)c6ncccc56)n4)c3)no2)C1=O` [Example 421, (R)-3-Hydroxy-1-methyl-3-(3-(3-(2-((1-methyl-1H-pyrazolo[3,4-b]pyridin-3-yl)amino)pyrimidin-4-yl)phenyl)isoxazol-5-yl)pyrrolidin-2-one], for which the IC50 is more than 500 nM.

On to `CN1CC[C@@](O)(c2cc(-c3cccc(-c4ccnc(Nc5nn(C)c6nccnc56)n4)c3)no2)C1=O` [Example 422, (R)-3-Hydroxy-1-methyl-3-(3-(3-(2-((1-methyl-1H-pyrazolo[3,4-b]pyrazin-3-yl)amino)pyrimidin-4-yl)phenyl)isoxazol-5-yl)pyrrolidin-2-one], for which the IC50 is more than 500 nM.

Regarding `CN1CC[C@@](O)(c2cc(-c3cccc(-c4nc(Nc5cnn(C)c5)ncc4F)c3)no2)C1=O` [Example 423, (R)-3-(3-(3-(5-Fluoro-2-((1-methyl-1H-pyrazol-4-yl)amino)pyrimidin-4-yl)phenyl)isoxazol-5-yl)-3-hydroxy-1-methylpyrrolidin-2-one], the IC50 is more than 500 nM.

In the case of `CN1CC[C@@](O)(c2cc(-c3cccc(-c4nc(Nc5nn(C)cc5C#N)ncc4F)c3)no2)C1=O` [Example 424, (R)-3-((5-Fluoro-4-(3-(5-(3-hydroxy-1-methyl-2-oxopyrrolidin-3-yl)isoxazol-3-yl)phenyl)pyrimidin-2-yl)amino)-1-methyl-1H-pyrazole-4-carbonitrile], the IC50 is more than 500 nM.

Take `CN1CC[C@@](O)(c2cc(-c3cccc(-c4nc(Nc5ccn(C)n5)ncc4F)c3)no2)C1=O` [Example 425, (R)-3-(3-(3-(5-Fluoro-2-((1-methyl-1H-pyrazol-3-yl)amino)pyrimidin-4-yl)phenyl)isoxazol-5-yl)-3-hydroxy-1-methylpyrrolidin-2-one]: the IC50 was more than 500 nM.
